Results from patent US6861233B1, “Method of screening for triacyglycerol hydrolase inhibitors” (Glaxo Group Limited, priority 1999, dated 2005).

Legend:
human liver TGH = target: T1, human liver TGH (Homo sapiens, UniProt P23141); test: Effect of test agents on human liver TGH (4-methylumbelliferyl butyrate fluorogenic substrate); assay type: biochemical; conditions: purified human liver TGH 1.16 nM, 15-min pre-incubation, 4-MU-butyrate substrate; read-out: concentration which resulted in 50% inhibition of TGH
T1 construct: the enzyme from microsomal membranes of liver tissues was solubilised by the zwitterionic detergent; from tissue; host or cells: human liver (microsomal membranes)
T1 sequence (P23141 21-567 limits assumed): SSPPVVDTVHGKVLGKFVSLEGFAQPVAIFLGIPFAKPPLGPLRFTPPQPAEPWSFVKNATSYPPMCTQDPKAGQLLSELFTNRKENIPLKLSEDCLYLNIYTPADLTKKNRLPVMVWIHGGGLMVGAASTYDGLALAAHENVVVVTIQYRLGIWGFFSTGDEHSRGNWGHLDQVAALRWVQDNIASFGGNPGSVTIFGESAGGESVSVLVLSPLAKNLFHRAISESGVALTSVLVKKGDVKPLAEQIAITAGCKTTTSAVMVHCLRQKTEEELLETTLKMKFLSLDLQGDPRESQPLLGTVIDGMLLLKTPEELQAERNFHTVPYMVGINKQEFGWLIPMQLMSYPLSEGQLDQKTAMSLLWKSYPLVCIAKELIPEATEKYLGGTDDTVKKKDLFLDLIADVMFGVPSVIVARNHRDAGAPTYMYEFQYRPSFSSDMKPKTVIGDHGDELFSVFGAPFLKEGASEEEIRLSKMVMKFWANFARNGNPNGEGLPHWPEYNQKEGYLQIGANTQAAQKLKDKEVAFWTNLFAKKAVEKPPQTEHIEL
Method: Human liver TGH was purified according to Lehner and Verger's protocol described for the porcine liver TGH [13). Briefly, the enzyme from microsomal membranes of liver tissues was solubilised by the zwitterionic detergent 3-[(3 cholamidopropyl)dimethylammonio]-1-propanesulfonate (CHAPS) and was purified to apparent homogeneity by sequential chromatography on Q-sepharose and hydroxyapatite.
The enzymatic activity of TGH was evaluated with the fluorogenic substrate 4-methylumbelliferyl butyrate (4-MU-butyrate). Briefly, 10 μl of a solution of 25 mM of 4-MU-butyrate in tetrahydrofuran was injected in 2 ml of a buffer containing Tris (20 mM), pH 8.0, EDTA (1 mM) and taurodeoxycholate (300 μM). TGH activity was assayed at 1.16 nM in a final volume of 100 μl. The compound was dissolved in DMSO to be tested at various concentrations (from 1 nM to 2 μM) and was incubated with the enzyme 15-min prior to the addition of 20 μl of the substrate, which gives the starting point of the enzymatic reaction. […]
The basal level of fluorescence of the substrate was evaluated in a reaction mixture of 70 μl of buffer, 10 μl of DMSO (at the appropriate dilution) and 20 μl of substrate, and was subtracted from each other data. Rates of lipolysis were determined from continuous increase in fluorescence intensity at 460 nm (Excitation: 355 nm).

[1] = target: T2, lipoprotein lipase (LPL) from bovine milk (Bos taurus, UniProt P11151); test: Effect of TGH inhibitors on lipoprotein lipase activity (radiolabelled trioleoylglycerol hydrolysis); assay type: biochemical; conditions: tested at 5 μM, incubated with the enzyme 15-min prior to substrate
T2 construct: lipoprotein lipase (LPL) from bovine milk; from tissue; host or cells: bovine milk
T2 sequence (P11151 29-478): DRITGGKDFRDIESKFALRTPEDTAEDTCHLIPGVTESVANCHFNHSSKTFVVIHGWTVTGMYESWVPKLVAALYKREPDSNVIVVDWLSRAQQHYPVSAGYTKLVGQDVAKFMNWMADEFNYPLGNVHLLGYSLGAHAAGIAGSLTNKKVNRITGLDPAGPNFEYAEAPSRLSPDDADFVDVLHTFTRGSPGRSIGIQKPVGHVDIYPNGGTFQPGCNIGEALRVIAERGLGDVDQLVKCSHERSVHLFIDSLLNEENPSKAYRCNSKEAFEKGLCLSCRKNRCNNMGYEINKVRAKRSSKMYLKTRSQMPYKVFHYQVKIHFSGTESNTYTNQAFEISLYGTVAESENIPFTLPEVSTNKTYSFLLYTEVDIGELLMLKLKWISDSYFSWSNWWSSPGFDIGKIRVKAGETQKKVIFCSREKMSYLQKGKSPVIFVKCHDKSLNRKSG
Method: In order to evaluate the specificity of TGH inhibitors toward TGH, test compound was tested on the enzymatic activity of lipoprotein lipase (LPL) from bovine milk. For this purpose radiolabelled trioleoylglycerol (250 μM, specific activity 1 mCi/mmole) was emulsified in mixture of 10% gum arabic by sonication. Long-chain triacylglycerol hydrolysis was assayed in a final volume of 200 μl containing LPL (1.5 μg/ml), Tris (50 mM), pH 8.0; MgCl2 CaCl2 (1 mM), and 150 mM NaCl with 1 mg/ml BSA as a fatty acid acceptor for 30 min at 37° C. The reaction was terminated with the addition of 3.25 ml of methanol/chloroform/heptane (3.85:3.42:2.73 by volume); 0.3 ml of 150 mM NaCl, lipid carriers (100 μg of unlabelled oleic acid), and 50 μl of 1 N NaOH. The mixture was vortexed and centrifuged. One ml of the upper phase (containing the fatty acids that have been hydrolyzed) was mixed with 10 ml of Cytoscint and counted. Test compound is incubated with the enzyme 15 minutes prior to the addition of the substrate.

normal fed hamsters = test: Hypolipidemic activity of the TGH inhibitor in hamster; assay type: in vivo; conditions: oral, 25 mg/kg twice a day for 3 days
Method: Ten normal fed hamsters were randomly allocated into 2 groups. Animals from one group were orally gavaged with a test TGH inhibitor in DMSOI Labrafil (10/90%), 25 mg/kg, twice a day for 3 days while the animals from the other group were gavaged with the solvent (DMSOI/abrafil) twice a day for 3 days. The animals were sacrificed 4 hours following the last administration and the plasma lipids and lipoproteins were analyzed.
Total cholesterol (TC) and triglyceride (TG) levels in plasma were determined enzymatically with reagents from Bio Merieux. VLDL/LDL lipoprotein fractions were separated from the HDL lipoproteins by gradient centrifugation (d=1.063). Cholesterol in the VLDL/LDL as well as in the HDL fraction was also determined using the Bio Merieux kit. Apolipoprotein B-100 (Apo-B100) in the VLDL/LDL fraction was visualized by using SDS-PAGE under reducing conditions using resolving gels containing a 5% to 12% gradient.

[2] = 4 hours after last administration

- IC50 (human liver TGH): 4 nM
- effect on the enzymatic activity of LPL [1]: did not affect
SMILES: Cc1cccc(NN=C(C(=O)c2cccs2)C(=O)C(F)(F)F)c1 [4,4,4-trifluoro-2-[2-(3-methylphenyl)hydrazono]-1-(2-thienyl)butane-1,3-dione]
- HDL cholesterol level (normal fed hamsters; [2]): not significantly affected
- reduction in VLDL/LDL cholesterol (from the solvent treated animals) (normal fed hamsters; [2]): 40%
- reduction in the plasma TG concentration (from the solvent treated animals) (normal fed hamsters; [2]): −55%
- ApoB100 decrease compared to control animals (normal fed hamsters; VLDL/LDL fraction, SDS-PAGE): −39%
